The test system of one assay is human plasma. The experiment in a line: In-vitro anticoagulation on human plasma (APTT kit, coagulation time). As to conditions: concentration of the compound when the coagulation time (APTT) was prolonged twice. On the procedure:
The following method was used to determine the in-vitro anticoagulation of the compound of the present invention in the human plasma. In the method, an APTT kit of the MediRox company was used to test. The APTT kit was purchased from MediRox (article number MRX930), and the human plasma was prepared internally.
The preparation of the human plasma was briefly described as follows: human plasma was collected in a blood collection tube containing sodium citrate, and centrifuged at 3,000 rpm for 10 minutes at room temperature, and plasma was collected, and packaged separately and stored at −80° C.
An APTT test process was briefly described as follows: a test compound was dissolved in DMSO to prepare a 10 mM storage solution first, then the test compound was diluted with DMSO by a triple gradient, and a final concentration of the test compound in a reaction system ranged from 217 μM to 0.03 μM. 4 μL, of test compounds at different concentrations diluted with DMSO were added to a centrifuge tube containing 180 μL of plasma, and 4 μL of DMSO was added to a blank group, shaken and mixed evenly, and incubated at 37° C. for 5 minutes. Subsequently, an APTT reagent was placed in a reagent holder according to instrument requirements, the incubated plasma sample was placed in a detection position of a coagulation analyzer, and a coagulation time was determined and recorded (s). With a final concentration of the compound as an abscissa and Ratio (Ratio=TiT0, wherein T0 was a coagulation time of a blank control, and Ti was a coagulation time of a compound to be tested) as an ordinate, a coagulation dose-effect curve was drawn by Graph Pad Prisms, and a concentration of the compound when the coagulation time was prolonged twice was calculated, which was namely a CT2 value, as shown in Table 2.

Assay [1] concerns the target T1, Native human Factor XIa protease (Homo sapiens, UniProt P03951).
T1 construct: The Native human Factor XIa protease was purchased from Abcam; purchased Abcam ab62411
Kind of assay: Inhibition of activity of Factor XIa protease (chromogenic substrate S-2366). The class given is biochemical. As to conditions: S-2366 1 mM, 37° C. 10 minutes, absorption at 405 nm. From the text: The following method was used to determine an inhibition degree of the compound of the present invention on an activity of Native human Factor XIa protease in vitro. In the method, a Factor XIa chromogenic substrate was used to test the inhibition degree on the activity of the Factor XIa protease. The Native human Factor XIa protease was purchased from Abcam (article number ab62411), and S-2366 was purchased from Chromogenix (article number 82109039). An experimental process was briefly described as follows: a test compound was dissolved in DMSO to prepare a 10 mM storage solution first, then the compound was diluted with a Factor XIa reaction buffer (100 mM Tris-HCl, 200 mM NaCl, 0.02% Tween 20, pH 7.4) by a quadruple gradient, and a final concentration of the test compound in a reaction system ranged from 10,000 nM to […]. The reaction was carried out in a 384-well microplate. 2 μL of the test compounds at different concentrations diluted with the reaction buffer were added to wells first, and 2 μL of 1% DMSO (a final concentration of DMSO in the reaction system was 0.1%) was used to replace blank and control wells. Subsequently, 8 μL of enzyme working solution (a final concentration of Factor XIa was […]) was added to each well, and 8 μL of Factor XIa reaction buffer was used to replace the blank well, centrifuged for 30 seconds, and incubated on ice for 5 minutes. Finally, 10 μL of substrate working solution (a final concentration of S-2366 was 1 mM) was added to each well, and centrifuged for 30 seconds, and the reaction was started. The solution was incubated at 37° C. for 10 minutes to determine a light absorption value at 405 nm. By comparing with a light absorption value of the control group (0.1% DMSO), a percentage inhibition rate of the compound at each concentration was calculated, and nonlinear regression analysis was carried out on value-inhibition rate with the concentration of the compound by GraphPad Prism 5 software, so as to obtain an IC50 value of the compound, as shown in Table 1.

We go through 14 compounds from patent US20230373972A1, “PIPERAZINE DERIVATIVE, PREPARATION METHOD THEREFOR AND USE THEREOF” (Zhejiang Hisun Pharmaceutical Co., Ltd., priority 2020, published 2023).

T1 sequence (P03951 388-625 limits assumed): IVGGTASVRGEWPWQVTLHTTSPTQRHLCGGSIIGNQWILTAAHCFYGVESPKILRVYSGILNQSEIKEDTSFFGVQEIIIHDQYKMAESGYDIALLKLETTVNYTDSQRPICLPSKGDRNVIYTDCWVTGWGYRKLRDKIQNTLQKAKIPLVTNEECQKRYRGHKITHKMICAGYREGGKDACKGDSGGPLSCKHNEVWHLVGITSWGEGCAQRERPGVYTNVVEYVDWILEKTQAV
T1 sequence (P03951 19-387 partner limits assumed): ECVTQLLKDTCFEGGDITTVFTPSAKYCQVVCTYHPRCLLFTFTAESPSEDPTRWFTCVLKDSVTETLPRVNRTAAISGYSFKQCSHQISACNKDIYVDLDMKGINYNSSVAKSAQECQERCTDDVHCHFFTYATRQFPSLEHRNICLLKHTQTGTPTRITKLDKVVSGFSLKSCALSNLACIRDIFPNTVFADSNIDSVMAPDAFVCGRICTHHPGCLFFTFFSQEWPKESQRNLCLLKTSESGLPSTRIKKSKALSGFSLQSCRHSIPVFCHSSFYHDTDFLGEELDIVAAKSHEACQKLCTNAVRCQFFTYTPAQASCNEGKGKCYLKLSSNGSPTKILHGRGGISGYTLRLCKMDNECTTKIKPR

Usually IC50 stands for the point on the concentration scale where inhibition reaches its midpoint. Read a high IC50 as weaker potency. Regarding `Cn1cc2ccc(NC(=O)C(Cc3ccccc3)N3CC(=O)N(c4cc(Cl)ccc4-n4cnnn4)CC3=O)cc2n1` (stereo not shown) [Example 31, 2-(4-(5-Chloro-2-(1H-tetrazol-1-yl)phenyl)-2,5-dioxopiperazin-1-yl)-N-(2-methyl-2H-indazol-6-yl)-3-phenylpropanamide], the “CT2” value with human plasma amounted to 13.7 µM. The half-maximal inhibitory concentration (IC50) in assay [1] was 38.9 nM.

In the case of `O=C(Nc1ccc2c(cnn2C(F)F)c1)C(Cc1ccccc1)N1CC(=O)N(c2cc(Cl)ccc2-n2cnnn2)CC1=O` (stereo not shown) [Example 33, 2-(4-(5-chloro-2-(1H-tetrazol-1-yl)phenyl)-2,5-dioxopiperazin-1-yl)-N-(1-(difluoromethyl)-1H-indazol-5-yl)-3-phenylpropanamide], the “CT2” value in the assay on human plasma worked out at 18.5 µM. The compound also registered an IC50 in assay [1] of 26.1 nM.

`O=C(Nc1ccc2nn(C(F)F)cc2c1)C(Cc1ccccc1)N1CC(=O)N(c2cc(Cl)ccc2-n2cnnn2)CC1=O` (stereo not shown) [Example 34, 2-(4-(5-Chloro-2-(1H-tetrazol-1-yl)phenyl)-2,5-dioxopiperazin-1-yl)-N-(2-(difluoromethyl)-2H-indazol-5-yl)-3-phenylpropanamide]: the “CT2” value with human plasma stood at 5.9 µM. Also, the IC50 in assay [1] turned out to be 10.4 nM.

Regarding `NC(=O)c1ccc(NC(=O)C(Cc2ccccc2)N2CC(=O)N(c3cc(Cl)ccc3-n3cnnn3)CC2=O)cc1F` (stereo not shown) [Example 35, 4-(2-(4-(5-Chloro-2-(1H-tetrazol-1-yl)phenyl)-2,5-dioxopiperazin-1-yl)-3-phenylpropanamido)-2-fluorobenzamide], the “CT2” value in the assay with human plasma came to 5.8 µM. The compound further yielded an IC50 in assay [1] of 32 nM.

`O=C(Nc1ccn2nccc2c1)C(Cc1ccccc1)N1CC(=O)N(c2cc(Cl)ccc2-n2cnnn2)CC1=O` (stereo not shown) [Example 37, 2-(4-(5-chloro-2-(1H-tetrazol-1-yl)phenyl)-2,5-dioxopiperazin-1-yl)-3-phenyl-N-(pyrazolo[1.5-a]pyridin-5-yl)propanamide]: the “CT2” value in the assay with human plasma was found to be 7.5 µM. In addition, the IC50 in assay [1] was determined as 17.6 nM.

Turning to `Cn1cc2cc(NC(=O)C(Cc3ccc(F)cc3)N3CC(=O)N(c4cc(Cl)ccc4-n4cnnn4)CC3=O)ccc2n1` (stereo not shown) [Example 41, 2-(4-(5-Chloro-2-(1H-tetrazol-1-yl)phenyl)-2,5-dioxopiperazin-1-yl)-3-(4-fluorophenyl)-N-(2-methyl-2H-indazol-5-yl)propanamide], the “CT2” value in the assay on human plasma was 8.5 µM. Also, the midpoint of inhibition in assay [1], the IC50, lay at 38.5 nM.

In the case of `O=C(O)c1ccc(NC(=O)C(Cc2ccccc2)N2CC(=O)N(c3cc(Cl)ccc3-n3cnnn3)CC2=O)cc1` (stereo not shown) [Example 52, 4-(2-(4-(5-chloro-2-(1H-tetrazol-1-yl)phenyl)-2,5-dioxopiperazin-1-yl)-3-phenylpropanamido)benzoic Acid], the “CT2” value in the assay with human plasma came out at 2.0 µM. In assay [1], this compound had an IC50 of 17.6 nM.

As to `O=C(Nc1ccc2nn(C(F)F)cc2c1)[C@H](Cc1ccccc1)N1CC(=O)N(c2cc(Cl)ccc2-n2cc(Cl)nn2)CC1=O` [Example 97, (S)-2-(4-(5-chloro-2-(4-chloro-1H-1,2,3-triazol-1-yl)phenyl)-2,5-dioxopiperazin-1-yl)-N-(2-(difluoromethyl)-2H-indazol-5-yl)-3-phenylpropanamide], the “CT2” value in the assay on human plasma was 12.5 µM. The same compound yielded a half-maximal inhibitory concentration (IC50) in assay [1] of 21.2 nM.

Consider `COc1ccc(CC(C(=O)Nc2ccc3nn(C)cc3c2)N2CC(=O)N(c3cc(Cl)ccc3-n3cc(Cl)nn3)CC2=O)cc1` (stereo not shown) [Example 108, 2-(4-(5-chloro-2-(4-chloro-1H-1,2,3-triazol-1-yl)phenyl)-2,5-dioxopiperazin-1-yl)-3-(4-methoxyphenyl)-N-(2-methyl-2H-indazol-5-yl)propanamide], for which the “CT2” value in the assay on human plasma worked out at 10.6 µM. The midpoint of inhibition in assay [1], the IC50, lay at 35.8 nM.

Consider `[2H]C([2H])([2H])n1cc2cc(NC(=O)C(Cc3ccccc3)N3CC(=O)N(c4cc(Cl)ccc4-n4cc(Cl)nn4)CC3=O)ccc2n1` (stereo not shown) [Example 109, 2-(4-(5-Chloro-2-(4-chloro-1H-1,2,3-triazol-1-yl)phenyl)-2,5-dioxopiperazin-1-yl)-N-(2-(methyl-d3)-2H-indazol-5-yl)-3-phenylpropanamide], for which the “CT2” value in the assay with human plasma came out at 12.6 µM. In assay [1], this compound displayed a 50% inhibitory concentration (IC50) of 12.7 nM.

Consider `Cn1ccc(C[C@@H](C(=O)Nc2ccc3nn(C)cc3c2)N2CC(=O)N(c3cc(Cl)ccc3-n3cc(Cl)nn3)CC2=O)n1` [Example 112, (S)-2-(4-(5-chloro-2-(4-chloro-1H-1,2,3-triazole-1-yl)phenyl)-2,5-dioxopiperazin-1-yl)-3-(1-methyl-1H-pyrazole-3-yl)-N-(2-methyl-2H-indazol-5-yl)propionamide], for which, in the assay with human plasma, the “CT2” value is 5.6 µM. This compound came in with a concentration for half-maximal inhibition (IC50) in assay [1] of 25.6 nM.

`[2H]C([2H])([2H])n1cc2cc(NC(=O)C(Cc3ccc(F)cc3)N3CC(=O)N(c4cc(Cl)ccc4-n4cc(Cl)nn4)CC3=O)ccc2n1` (stereo not shown) [Example 114, 2-(4-(5-chloro-2-(4-chloro-1H-1,2,3-triazol-1-yl)phenyl)-2,5-dioxopiperazin-1-yl)-3-(4-fluorophenyl)-N-(2-(methyl-d3)-2H-indazol-5-yl)propanamide]: the “CT2” value with human plasma is 14.9 µM. Moreover, it took 48.6 nM to reach half-maximal inhibition in assay [1] (IC50).

Turning to `Cn1cc2cc(NC(=O)C(Cc3ccc(C#N)cc3)N3CC(=O)N(c4cc(Cl)ccc4-n4cc(Cl)nn4)CC3=O)ccc2n1` (stereo not shown) [Example 115, 2-(4-(5-chloro-2-(4-chloro-1H-1,2,3-triazol-1-yl)phenyl)-2,5-dioxopiperazin-1-yl)-3-(4-cyanophenyl)-N-(2-methyl-2H-indazol-5-yl)propanamide], the “CT2” value with human plasma was determined as 11.7 µM. 46.7 nM corresponded to half-maximal inhibition in assay [1] (IC50).

Take `Cn1cc2cc(NC(=O)C(Cc3ccccc3)N3CC(=O)N(c4cc(Cl)ccc4-n4cc(C(F)(F)F)nn4)CC3=O)ccc2n1` (stereo not shown) [Example 121, 2-(4-(5-Chloro-2-(4-(trifluoromethyl)-1H-1,2,3-triazol-1-yl)phenyl)-2,5-dioxopiperazin-1-yl)-N-(2-methyl-2H-indazol-5-yl)-3-phenylpropanamide]: the “CT2” value with human plasma was found to be 16.1 µM. In assay [1], this compound returned an IC50 of 32.7 nM.
